The source of these data is patent US12534748B2, “Engineered beta-subunit of tryptophan synthase for production of non-canonical amino acids” (California Institute of Technology, priority 2015, dated 2026).

Structures are written as SMILES.

The target of test [1] is T1, Thermotoga maritima TrpB variant TmTrpB^0B2 (P14L, P19G, I69V, L274S, T292S) (Thermotoga maritima, UniProt P50909, I69V/L274S/P14L/P19G/T292S).
T1 sequence (P50909 with tags, fused parts or gaps P14L/P19G/I69V/L274S/T292S): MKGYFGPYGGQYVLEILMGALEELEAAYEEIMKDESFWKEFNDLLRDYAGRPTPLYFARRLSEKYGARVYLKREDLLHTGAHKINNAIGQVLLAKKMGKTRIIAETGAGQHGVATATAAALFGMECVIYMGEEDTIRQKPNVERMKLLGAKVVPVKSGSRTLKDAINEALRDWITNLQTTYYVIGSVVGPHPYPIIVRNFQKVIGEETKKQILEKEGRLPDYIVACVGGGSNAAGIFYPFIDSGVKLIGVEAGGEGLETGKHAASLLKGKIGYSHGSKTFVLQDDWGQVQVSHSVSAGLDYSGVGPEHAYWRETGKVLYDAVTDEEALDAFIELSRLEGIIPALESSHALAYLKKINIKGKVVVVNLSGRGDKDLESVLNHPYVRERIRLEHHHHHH
The experiment in a line: Tryptophan formation from L-serine and indole, kinetics of TmTrpB^0B2. From the text:
(§1) Kinetics and UV-Vis Spectroscopy.
Cloning, expression, and purification of the different orthologs.
The next homolog, TmTrpB, was examined.

Test [2] has as its target T2, Pyrococcus furiosus TrpB variant PfTrpB^4D11 (E17G, I68V, T292S, F274S, T321A), SEQ ID NO: 16 (Pyrococcus furiosus, UniProt Q8U093, E17G/F274S/I68V/T292S/T321A).
T2 sequence (Q8U093 with tags, fused parts or gaps E17G/I68V/F274S/T292S/T321A): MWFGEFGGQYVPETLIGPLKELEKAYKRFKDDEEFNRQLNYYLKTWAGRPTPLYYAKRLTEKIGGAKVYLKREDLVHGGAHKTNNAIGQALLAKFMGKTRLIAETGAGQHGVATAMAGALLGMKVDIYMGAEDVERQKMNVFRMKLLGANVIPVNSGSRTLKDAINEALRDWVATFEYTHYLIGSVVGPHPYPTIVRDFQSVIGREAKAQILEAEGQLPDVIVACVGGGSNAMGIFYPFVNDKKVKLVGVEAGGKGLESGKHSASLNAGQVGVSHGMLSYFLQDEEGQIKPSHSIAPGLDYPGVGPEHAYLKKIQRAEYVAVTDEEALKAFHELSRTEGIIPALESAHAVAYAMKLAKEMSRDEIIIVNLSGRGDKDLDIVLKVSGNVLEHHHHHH
The experiment in a line: Tryptophan formation from L-serine and indole, kinetics of PfTrpB^4D11. In kind it is biochemical. As to conditions: 75° C. How it is done: Cloning, Expression, and Purification of PfTrpA and PfTrpB. The genes encoding PfTrpB (UNIPROT ID Q8U093) and PfTrpA (UNIPROT ID Q8U094) were obtained as gBlocks and cloned into pET22(b)+ for expression in E. coli BL21 E. cloni EXPRESS cells (Lucigen). Heterologous protein expression of PfTrpA and PfTrpB was performed in Terrific Broth with 100 μg/mL ampicillin (TBamp) and induced with 500 mM IPTG (final concentration 1 mM). PfTrpB was purified via a HisTrap HP column. PfTrpA was purified via a Q HP HiTrap column (flow-through), followed by ammonium sulfate precipitation, and hydrophobic interaction chromatography on a phenyl Sepharose HP HiTrap column (FIG. 3).
as §1
PfTrpB^4D11 served as template for a final round of random mutagenesis, for which 1,144 clones were screened.

Test [3] relates to Thermotoga maritima TrpB, wild type (literature). As to conditions: kinetics measured at 80° C., cited from earlier work.

For `c1ccc2[nH]ccc2c1` [indole], the kcat in test [1] (75° C.) is 0.11 s⁻¹; in test [2], 2.2 s⁻¹; in test [3], 4.2 s⁻¹. Moreover, the “kcat relative to wild-type activity” value in test [1] (of the wild-type activity) is 10%. Also, the Michaelis constant (Km) in test [2] (read-out: KM, indole) is 11 µM; in test [3] (read-out: KM indole), 40 µM.

One may read the kcat as the number of substrate molecules converted per active site and unit of time at saturation. As a reminder, the Km is the substrate concentration at which the rate is half of its maximum.
